Measured values: article PMC7663531, “Synthesis, Molecular Docking Screening and Anti-Proliferative Potency Evaluation of Some New Imidazo[2,1-b]Thiazole Linked Thiadiazole Conjugates” (Molecules, 2020)

Columns and labels:
HepG2 cells = test: Anti-proliferative assay in vitro (SRB) on hepatic cancer cell line HepG2; type: cell-based; settings: Homo sapiens, 72 h exposure, tested from 100 to 0.1 µg/mL, Nd: no detectable activity in the used concentrations, DMSO 1%, read-out: HepG2 IC50 ± SD
Method: (§1) The results of anti-proliferative activity were calculated based on the IC50 (inhibitory concentration 50%), the concentration of a tested compound which inhibits 50% of the cells population. IC50 esteems were determined for each examination independently and mean qualities ± SD are introduced in Table 1. The movement of every subordinate at every fixation was tried in three-fold in a solitary test; which was rehashed 3–5 times. The aftereffects of the investigations on against proliferative action of tried mixes are summed up in Table 1
(§2) Cell lines: Hep-G2 (human hepatic disease) and BALB/3T3 (murine fibroblast) are being kept up in the Institute of Cancer, Cairo, Egypt. All malignant growth cell lines were obtained from American Type Culture Collection (Rockville, Maryland, USA) and kept up in the Institute of Cancer. HepG2 cells were refined in Eagle’s minimum essential medium (EMEM) and supplemented with 10% FBS; DMEM and RPMI1640 were choices for that function also. Suction included new culture medium each 2–3 days. HepG2 cell multiplying time was 48 h. BALB/3T3 cell line was refined in DMEM and enhanced with 2 mM L-glutamine, 10% fetal ox-like serum (GE Healthcare, Logan, UT, USA). To entry cells, cell monolayer with 1× PBS were flushed twice and pre-warmed (37 °C) 0.05% Trypsin-EDTA arrangement was added to cover the lower part of the jar; brooded for 5–7 min. As cells withdrew, the trypsin was killed by including 4× volume of complete development medium with 10% FBS and delicately suspended the cells by pipetting. To abstain from clustering, the phones were not upset by shaking the jar while sitting tight for separation. Split cells 1:4 at regular intervals or 1:8 like clockwork. Societies had been brooded at 37 °C in a humidified climate with 5% CO2.
(§3) All compounds were broken up in DMSO (stock arrangement 10 mg/mL) and consequently weakened in culture medium to arrive at the necessary fixations (going from 100 to 0.1 µg/mL).
(§4) 24 h before expansion of the tried exacerbates, the cells were plated in 96-well plates (Sarstedt, Germany) at thicknesses of 1 × 10^4 cells per well. The examination was performed after 72 h introduction to shifting centralizations of the tried mixes. The in vitro cytotoxic impact of all mixes was analyzed utilizing the SRB measure.
(§5) The subtleties of this strategy were depicted by Skehan et al.. The cells were joined to the lower part of plastic wells by fixing them with cold half TCA (trichloroacetic corrosive, Sigma-Aldrich Chemie GmbH, Steinheim, Germany) on the head of the way of life medium in each well. The plates were hatched at 4 °C for 1 h and afterward washed multiple times with faucet water. The cell material fixed with TCA was recolored with 0.4% sulphorhodamine B (SRB, Sigma-Aldrich Chemie GmbH, Steinheim, Germany) disintegrated in 1% acidic corrosive for 30 min. Unbound color was taken out by flushing (multiple times) in 1% acidic corrosive. The protein-bound color was removed with 10 mMunbufferedTris base for assurance of the optical thickness (λ = 540 nm) in Synergy H4 multi-mode microplate peruser (BioTek Instruments, Winooski, VT, USA).

[1] = tested on: BALB/3T3 (murine fibroblast); test: Anti-proliferative assay in vitro (SRB) on normal cell line BALB/3T3; type: cell-based; settings: Mus musculus, 72 h exposure, tested from 100 to 0.1 µg/mL, Nd: no detectable activity in the used concentrations, DMSO 1%, read-out: BALAB/3T3 IC50 ± SD
Method: as §1, §2, §3, §4, §5

melting point [°C]	IC50 (HepG2 cells) [µg/mL]	Compound	IC50 [1] [µg/mL]
292 to 294	–	CC(=O)c1nn(-c2cccc(-n3nc(C(C)=O)s/c3=N\N=C(/C)c3sc4nc(-c5ccc(C)cc5)cn4c3C)c2)/c(=N/N=C(\C)c2sc3nc(-c4ccc(C)cc4)cn3c2C)s1 [Compound 11, 1,1’-(4,4’-(1,3-Phenylene)bis(5-((1-(3-methyl-6-(p-tolyl)imidazo[2,1-b]thiazol-2-yl)ethylidene)hydrazono)-4,5-dihydro-1,3,4-thiadiazole-4,2-diyl))diethanone]	–
273 to 275	–	CC(=NN=c1sc(-c2ccccc2)nn1-c1ccccc1)c1sc2nc(-c3ccc(C)cc3)cn2c1C [Compound 6i, 2-(1-((3,5-Diphenyl-1,3,4-thiadiazol-2(3H)-ylidene)hydrazono)ethyl)-3-methyl-6-(p-tolyl) imidazo[2,1-b]thiazole]	–
–	3.56 ± 0.46	COc1cccc2c1C(=O)c1c(O)c3c(c(O)c1C2=O)C[C@@](O)(C(=O)CO)C[C@@H]3O[C@H]1C[C@H](N)[C@H](O)[C@H](C)O1 [Doxorubicin, reference compound]	3.21 ± 0.32
> 300	23.5 ± 4.48	CC(=NN=c1sc(-c2ccccc2)nn1-c1cccc(-n2nc(-c3ccccc3)sc2=NN=C(C)c2sc3nc(-c4ccc(C)cc4)cn3c2C)c1)c1sc2nc(-c3ccc(C)cc3)cn2c1C [Compound 10, 1,3-Bis(2-((1-(3-methyl-6-(p-tolyl)imidazo[2,1-b]thiazol-2-yl)ethylidene)hydrazono)-5-phenyl-1,3,4-thiadiazol-3(2H)-yl)benzene]	26.2 ± 3.21
> 300	12.7 ± 1.36	CC(=O)c1nn(-c2ccc(S(=O)(=O)c3ccc(-n4nc(C(C)=O)s/c4=N\N=C(/C)c4sc5nc(-c6ccc(C)cc6)cn5c4C)cc3)cc2)/c(=N/N=C(\C)c2sc3nc(-c4ccc(C)cc4)cn3c2C)s1 [Compound 12, 1,1’-(4,4’-(Sulfonylbis(4,1-phenylene))bis(5-((1-(3-methyl-6-(p-tolyl)imidazo[2,1-b]thiazol-2-yl)ethylidene)hydrazono)-4,5-dihydro-1,3,4-thiadiazole-4,2-diyl))diethanone]	8.34 ± 1.81

The remaining lines, values behind:

Compound	melting point [°C]	IC50 (HepG2 cells) [µg/mL]	IC50 [1] [µg/mL]
CCOC(=O)c1nn(-c2ccc(C)cc2)c(=NN=C(C)c2sc3nc(-c4ccc(C)cc4)cn3c2C)s1 [Compound 6e, Ethyl 5-((1-(3-methyl-6-(p-tolyl)imidazo[2,1-b]thiazol-2-yl)ethylidene)hydrazono)-4-(p-tolyl)-4,5-dihydro-1,3,4-thiadiazole-2-carboxylate]	117 to 119	–	–
CC(=NN=c1sc(C(=O)Nc2ccccc2)nn1-c1ccc([N+](=O)[O-])cc1)c1sc2nc(-c3ccc(C)cc3)cn2c1C [Compound 6h, 5-((1-(3-Methyl-6-(p-tolyl)imidazo[2,1-b]thiazol-2-yl)ethylidene)hydrazono)-4-(4-nitrophenyl)-N-phenyl-4,5-dihydro-1,3,4-thiadiazole-2-carboxamide]	241 to 243	–	–
CC(=NN=c1sc(C(=O)Nc2ccccc2)nn1-c1ccccc1)c1sc2nc(-c3ccc(C)cc3)cn2c1C [Compound 6g, 5-((1-(3-Methyl-6-(p-tolyl)imidazo[2,1-b]thiazol-2-yl)ethylidene)hydrazono)-N,4-diphenyl-4,5-dihydro-1,3,4-thiadiazole-2-carboxamide]	209 to 211	33.2 ± 8.25	76.7 ± 4.14
CCOC(=O)c1nn(-c2ccccc2)c(=NN=C(C)c2sc3nc(-c4ccc(C)cc4)cn3c2C)s1 [Compound 6d, Ethyl 5-((1-(3-methyl-6-(p-tolyl)imidazo[2,1-b]thiazol-2-yl)ethylidene)hydrazono)-4-phenyl-4,5-dihydro-1,3,4-thiadiazole-2-carboxylate]	235 to 237	41.1 ± 8.32	–
CC(=O)c1nn(-c2ccc(Cl)cc2)c(=NN=C(C)c2sc3nc(-c4ccc(C)cc4)cn3c2C)s1 [Compound 6c, 1-(4-(4-Chlorophenyl)-5-((1-(3-methyl-6-(p-tolyl)imidazo[2,1-b]thiazol-2-yl)ethylidene) hydrazono)-4,5-dihydro-1,3,4-thiadiazol-2-yl)ethanone]	192 to 194	–	–
COc1ccc(-n2nc(C(C)=O)sc2=NN=C(C)c2sc3nc(-c4ccc(C)cc4)cn3c2C)cc1 [Compound 6b, 1-(4-(4-Methoxyphenyl)-5-((1-(3-methyl-6-(p-tolyl)imidazo[2,1-b]thiazol-2-yl)ethylidene) hydrazono)-4,5-dihydro-1,3,4-thiadiazol-2-yl)ethanone]	216 to 218	59.2 ± 9.27	–
CC(=O)c1nn(-c2ccc(C)cc2)c(=NN=C(C)c2sc3nc(-c4ccc(C)cc4)cn3c2C)s1 [Compound 6a, 1-(5-((1-(3-Methyl-6-(p-tolyl)imidazo[2,1-b]thiazol-2-yl)ethylidene)hydrazono)-4-(p-tolyl)-4,5-dihydro-1,3,4-thiadiazol-2-yl)ethanone]	220 to 222	63.3 ± 12.8	25.1 ± 12
CCOC(=O)c1nn(-c2ccc(Br)cc2)c(=NN=C(C)c2sc3nc(-c4ccc(C)cc4)cn3c2C)s1 [Compound 6f, Ethyl 4-(4-bromophenyl)-5-((1-(3-methyl-6-(p-tolyl)imidazo[2,1-b]thiazol-2-yl)ethylidene) hydrazono)-4,5-dihydro-1,3,4-thiadiazole-2-carboxylate]	156 to 158	57.5 ± 6.61	–
CSC(=S)N/N=C(\C)c1sc2nc(-c3ccc(C)cc3)cn2c1C [Compound 3, methyl 2-(1-(3-methyl-6-(p-tolyl)imidazo[2,1-b]thiazol-2-yl)ethylidene) hydrazinecarbodithioate]	182 to 184	–	–
